Legend:
[1] = target: AstaPo1 (AstaP-orange1), residues 21-223 (Coelastrella astaxanthina, UniProt S6BQ14); assay: differential scanning calorimetry, holoform vs apoform; assay type: binding; conditions: 20 mM Na-phosphate pH 7.0, 1 °C per min, apo Tm ~60 °C
[2] = target: T1, AstaPo1^41–190 (Coelastrella astaxanthina, UniProt S6BQ14); assay: SEC with diode-array absorbance; Trp fluorescence quenching; DSC of holoform; assay type: binding; conditions: holoform from ZEA-synthesizing E. coli; apoform insoluble
T1 construct: gene astaP; isolated FAS1 domain 41-190, N- and C-terminal regions removed, His6 cut leaving GPHM, E. coli, 16 kDa, monomer
T1 sequence (S6BQ14 entry or part of it): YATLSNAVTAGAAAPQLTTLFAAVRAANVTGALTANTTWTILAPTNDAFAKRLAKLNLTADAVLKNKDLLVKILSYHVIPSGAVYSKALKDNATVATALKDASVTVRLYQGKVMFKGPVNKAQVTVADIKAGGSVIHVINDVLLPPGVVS

Chain of AstaPo1 (AstaP-orange1), residues 21-223 (S6BQ14 entry or part of it): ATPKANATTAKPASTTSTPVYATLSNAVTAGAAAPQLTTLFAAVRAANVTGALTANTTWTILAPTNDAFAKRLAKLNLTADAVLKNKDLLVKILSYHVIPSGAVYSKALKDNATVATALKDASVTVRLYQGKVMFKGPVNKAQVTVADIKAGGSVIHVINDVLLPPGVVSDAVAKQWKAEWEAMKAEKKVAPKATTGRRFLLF

Row | Tm increase ([1]; holoform from ZEA-synthesizing E. coli) | Tm increase ([1]; holoform from CAN-synthesizing E. coli) | Compound | SEC with diode-array absorbance; Trp fluorescence quenching; DSC of holoform [2]
1 | > 15 °C | – | CC1=C(/C=C/C(C)=C/C=C/C(C)=C/C=C/C=C(C)/C=C/C=C(C)/C=C/C2=C(C)C[C@@H](O)CC2(C)C)C(C)(C)C[C@H](O)C1 [zeaxanthin] | which confirms the direct carotenoid interaction within this domain
2 | – | > 15 °C | CC1=C(/C=C/C(C)=C/C=C/C(C)=C/C=C/C=C(C)/C=C/C=C(C)/C=C/C2=C(C)C(=O)CCC2(C)C)C(C)(C)CCC1=O [canthaxanthin] | –
